Experimental data from patent publication US20060024373A1, “Cross-linked hyaluronic acid-laminin gels and use thereof in cell culture and medical implants” (priority 2000, published 2006).

Key:
[1] = tested on: neuronal cells dissociated from brains of 14-16 days rat embryos; experiment: Rat embryonic brain cells cultured in enriched HA-LN-gel with antioxidants / protective agents; format: cell-based; conditions: for most effective dose: agent added to enriched HA-LN-gel before culturing the cells, AA tested at 1 mM, 330 μM, 100 μM, NAC at 0.1, 1, 10 μM; for neuronal sprouting: first 24-48 hours of culture in the enriched gel, versus untreated control cultures
Experimental: Neuronal cells were manually dissociated from brains of 14-16 days rat embryos. Cells were embedded in the HA-LN-gel, which was enriched as described herein above. NAC and AA were obtained from SIGMA (Cat. No. 616-91-1 and […]; Lot 108H00575 and 096H02811, respectively). Pifithrin-α, cyclic (Calbiochem, Cat No. 506134, lot:B41595) is a very stable analog of pifithrin-α, with reduced cytotoxicity. NAC, AA and Pifithrin-α cyclic were added to the HA-LN-gel (enriched with neural growth factors) prior to culturing of cells. Culture medium was changed twice a week. All the experiments contained control cultures (without treatment of NAC or AA or Pifithrin-α. 5-7 experiments were performed in 12 wells, in triplicates. Dissociated brain cells were attached to DE53 cylindrical, positively charged microcarriers (MCs), and suspended in brain medium for 4-17 days ([…] 1990 Methods in Neur 2:195-209). The floating cell-MC aggregates were transferred (using fine spatula, under a stereo microscope) into HA-LN-gel enriched with the indicated growth factors or Antioxidants. During one month of daily observations the following differences (which were more pronounced in the stationary MC-cultures) were observed: […]

[2] = tested on: Endothelial cells (HUVEC); experiment: Attachment and growth of endothelial cells on or in substrates and milieus; format: cell-based
Experimental: In order to test the ability of HA-LN-gel to support the attachment and growth of endothelial cells, several experiments were conducted:
Endothelial cells (HE4 split #1), grown on gelatin, were collected by 0.25% trypsin-EDTA digestion. HUVEC were counted and 1.35×10^6 cells were divided into treatment groups. The cells were seeded in triplicates into 12-well plates at a concentration of 50,000 cells per well. The treatment groups were as follows: • 1. Cells seeded on the plastic • 2. Cells seeded on gelatin coating • 3. Cells seeded on HA (1 ml)+medium (0.5 ml) coating. Each well was coated with ˜0.2 ml • 4. Cells (150,000) seeded in HA (1 ml)+medium (0.5 ml). 0.5 ml per well. • 5. Cells seeded on gelatin and after attachment (24 hours) covered with HA+medium (as above, coated with 0.5 ml per well) • 6. Cells seeded on Laminin coating • 7. Cells seeded on HA-LN-gel coating (0.9 ml HA, 0.1 ml Laminin, 0.4 ml medium). Coating was with ˜0.2 ml per well • 8. Cells (150,000) seeded in HA-LN-gel (as in g) • 9. Cells seeded on gelatin and after attachment (24 hours) covered with HA-LN-gel (as in g above)
The morphology of the seeded cells was monitored microscopically every day.
Therefore the above experiment was repeated using 10% of the laminin concentration. Endothelial were seeded in 12 well plates in triplicates (50000 cell/well) as follows: • 1. Cells on gelatin coating as control. • 2. Cells on HA-LN-gel (10% of the usual concentration of laminin) coating. • 3. Cells in HA-LN-gel (10% of the usual concentration of laminin) • 4. Higher concentration of cells (100,000/well) in HA-LN-gel (10% of the usual concentration of laminin).

O=C1O[C@H]([C@@H](O)CO)C(O)=C1O [Ascorbic acid]
effectiveness of the tested concentrations ([1]; 1 mM, 330 μM or 100 μM applied to the cell cultures): effective
most effective dose [1]: 330 µM
neuronal sprouting [1]: stimulated intensive sprouting

CC(=O)N[C@@H](CS)C(=O)O [N-acetyl-L-cysteine]
most effective dose [1]: 10 µM
neuronal sprouting [1]: stimulated intensive sprouting

Cc1ccc(-c2cn3c4c(sc3n2)CCCC4)cc1 [Pifithrin-α, cyclic]
effectiveness compared between concentrations ([1]; 100 and 200 nM versus 2 μM): more effective
neuronal sprouting [1]: stimulated intensive sprouting

laminin: adhesive glycoprotein; Murine LN-1 obtained from Sigma
morphology and attachment of cells seeded on the coating ([2]; 50,000 cells per well, 12-well plates, usual laminin concentration, monitored microscopically every day): appeared round and did not attach well to the substrate
toxicity to endothelial cells as substrate coating ([2]; cells seeded on the coating): toxic
toxic effects on EC, overall finding of first experiment ([2]; laminin alone or as a component of the HA-LN-gel, at the concentration examined): some toxic effects
